From EP1247803A2, “Indolinone compounds suitable for modulation of protein kinases” (Sugen, Inc., priority 1996, dated 1998)

What was measured:
EGFR = target: T1, EGFR (Homo sapiens, UniProt P00533); assay: EGFR ELISA assay (in vitro kinase activity, EGFR captured from A431 cell lysate); type: biochemical; parameters: concentration or dose not given beside the values
T1 construct: Add 7 ug A431 cell lysate per well (EGFR source); endogenous in cells; host or cells: A431
Description: To provide a consistent method for measuring the in vitro kinase activity of the EGFR in an Enzyme-linked immunosorbent assay (Elisa).
Scope. The following protocol describes the procedures used to analyze protein tyrosine kinase activity on the EGFR in an Elisa. The procedure also describes the protocol for the initial screening of drugs for inhibition or activation of protein tyrosine kinase activity.
Reagents and Supplies. • 1. […] 05-101 monoclonal anti-EGFR antibody (commercially available from UB1) -80° C, 1 ml aliquots • 3. […] TBST Buffer Formulation: 50 mM Tris pH 7.2 150 mM NaCl 0.1% Triton X-100 • 5. Blocking Buffer Formulation: 5% Carnation Instant Milk in PBS • 6. A431 cell lysate A431 cells are available from a variety of commercial sources and may be used lysed using conventional methods known to those skilled in the art or as described for lysis of the 3T3 cells in the EGF cellular assay described herein. -80° C, 1 ml aliquots • 7. TBS Buffer Formulation: 50 mM Tris pH 7.2 150 mM NaCl • 8. […] NUNC 96-well V bottom polypropylene plates Applied Scientific Catalog # AS-72092 • 11. EDTA Formulation: 200 mM EDTA pH 8.0 • 12. […] Goat anti-rabbit IgG peroxidase conjugate Biosource Catalog # ALI0404 • 14. ABTS Solution Formulation: 100 mM Citric Acid (anhydrous) 250 mM Na2HPO4 pH 4.0 0.5 mg/ml ABTS (2,2'-azino-bis(3-ethylbenzthiazoline-6-sulfonic acid) (Sigma Catalog # A-1888) Keep solution in dark at 4 C until ready to use • 15. Hydrogen peroxide 30% solution Fisher Catalog # H325 Store in the dark at 4 C until ready to use • 16. ABTS/H2O2 Formulation: 15 mls ABTS solution 2 ul H2O2 Prepare 5 minutes before use and room temperature • 17. 0.2 M HCL stock in H2O Procedure. • 1. Coat Corning 96-well elisa plates with 0.5 ug per well 05-101 antibody. Bring final volume to 100 ul per well with PBS. Coat plates overnight at 4° C. • 2. Remove unbound 05-101 from wells by inverting plate to remove liquid. Wash 1x with distilled H2O by filling wells Pat the plate on a paper towel to remove excess liquid. • 3. Block plates with 5% milk in PBS. 150 ul per well. Incubate plate 30 minutes while shaking on a microtiter plate shaker. • 4. Wash plate 3x with dionized water, then once with TBST • 5. Add 7 ug A431 cell lysate per well (EGFR source). Add PBS to final volume of 100 ul per well Incubate 30 minutes while shaking. • 6. Wash as described in step 4. • 7. At this point, drugs or extracts are added to the wells. Dilute drugs/extracts 1:100 (unless specified otherwise) in TBS + 10% DMSO in 96-well polypropylene plates. Add 120 ul TBS to ELISA plate containing captured EGFR. Add 13.5 ul diluted drugs/extracts to ELISA plate. […] Incubate plate 30 minutes while shaking. • 8. […] (150 ul final volume in well with 3 uM ATP/5 mM MnCl2 final concentration in well.) Incubate 5 minutes while shaking vigorously. *NOTE: It is critical that ATP/MnCl2 phosphorylates the receptor for 5 minutes only. It is best to add the ATP/MnCl2 with an 12 channel pipettor 1 row at a time leaving 20 seconds between each row so that the reaction may be stopped with EDTA exactly 5 minutes later (this depends on the number of plates being phosphorylated in one batch). Shake between each addition. • 9. After 5 minutes, to stop reaction, add 16.5 ul of 200 mM EDTA pH 8.0 for 20 mM final in well, shaking continuously between each addition. This is done using the same timing method as above. After last row has received EDTA, shake plate an additional minute. • 10. Wash 4x with deionized water, twice with TBST. • 11. Add rabbit polyclonal anti-phosphotyrosine serum. Dilute 1:3000 in TBST. Add 100 ul per well. Incubate 30-45 minutes while shaking. • 12. Wash as described above in step 4. • 13. Add BioSource anti-rabbit peroxidase conjugate antibody. Dilute 1:2000 in TBST. Add 100 ul per well. Incubate 30 minutes while shaking. • 14. Wash as described in step 4. • 15. Add 100 ul of ABTS/H2O2 solution to well. Incubate 5 to 10 minutes while shaking. Remove bubbles • 16. […]

MET = MET biochemical kinase assay; parameters: species or system human; concentration or dose not given beside the values
Procedure, shortened: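 Lysate-derived MET, or chimeric receptors, is immobilised on plates through an antibody to the human MET cytoplasmic region. Compounds are added along with kinase buffer supplying ATP and divalent metal ions, and receptor autophosphorylation is quantified by anti-phosphotyrosine ELISA.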

PDGF-R = PDGF-R (Homo sapiens, UniProt P09619); assay: PDGF-R ELISA; type: cell-based
Description: A PDGF-R ELISA is described in International Patent Publication No. WO 96/40116, published December 19, 1996 by Tang et al.

T1 sequence (P00533 25-1210): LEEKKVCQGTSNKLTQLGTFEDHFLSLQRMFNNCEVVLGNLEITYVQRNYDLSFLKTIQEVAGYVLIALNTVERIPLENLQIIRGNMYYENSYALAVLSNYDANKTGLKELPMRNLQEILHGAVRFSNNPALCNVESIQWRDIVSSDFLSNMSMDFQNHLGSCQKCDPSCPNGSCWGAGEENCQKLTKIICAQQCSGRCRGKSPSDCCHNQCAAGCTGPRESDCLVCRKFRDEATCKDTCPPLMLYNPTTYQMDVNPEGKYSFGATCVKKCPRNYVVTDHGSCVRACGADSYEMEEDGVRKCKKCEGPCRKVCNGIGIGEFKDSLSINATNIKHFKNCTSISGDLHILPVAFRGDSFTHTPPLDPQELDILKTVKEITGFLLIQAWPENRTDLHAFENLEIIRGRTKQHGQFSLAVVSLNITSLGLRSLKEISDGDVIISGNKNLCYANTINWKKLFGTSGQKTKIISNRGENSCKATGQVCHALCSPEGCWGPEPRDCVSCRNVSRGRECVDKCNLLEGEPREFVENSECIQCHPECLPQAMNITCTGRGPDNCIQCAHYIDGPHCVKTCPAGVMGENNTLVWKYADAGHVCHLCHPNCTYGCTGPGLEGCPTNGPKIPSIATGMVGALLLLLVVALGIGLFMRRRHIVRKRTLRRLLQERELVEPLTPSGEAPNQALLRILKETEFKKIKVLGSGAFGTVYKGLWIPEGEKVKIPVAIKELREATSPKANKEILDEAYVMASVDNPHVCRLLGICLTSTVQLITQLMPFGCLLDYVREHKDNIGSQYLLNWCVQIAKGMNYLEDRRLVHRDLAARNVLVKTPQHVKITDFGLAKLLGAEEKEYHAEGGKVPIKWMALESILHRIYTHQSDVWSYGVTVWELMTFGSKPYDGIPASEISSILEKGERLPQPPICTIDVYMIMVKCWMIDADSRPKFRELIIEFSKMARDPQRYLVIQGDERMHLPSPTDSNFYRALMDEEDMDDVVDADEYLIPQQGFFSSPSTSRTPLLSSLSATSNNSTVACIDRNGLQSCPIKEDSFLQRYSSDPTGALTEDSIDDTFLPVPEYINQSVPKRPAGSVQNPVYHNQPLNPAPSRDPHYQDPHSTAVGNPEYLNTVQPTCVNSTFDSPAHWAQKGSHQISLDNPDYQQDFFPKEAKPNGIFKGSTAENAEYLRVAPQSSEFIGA
PDGF-R, sequence (P09619 33-1106, species assumed): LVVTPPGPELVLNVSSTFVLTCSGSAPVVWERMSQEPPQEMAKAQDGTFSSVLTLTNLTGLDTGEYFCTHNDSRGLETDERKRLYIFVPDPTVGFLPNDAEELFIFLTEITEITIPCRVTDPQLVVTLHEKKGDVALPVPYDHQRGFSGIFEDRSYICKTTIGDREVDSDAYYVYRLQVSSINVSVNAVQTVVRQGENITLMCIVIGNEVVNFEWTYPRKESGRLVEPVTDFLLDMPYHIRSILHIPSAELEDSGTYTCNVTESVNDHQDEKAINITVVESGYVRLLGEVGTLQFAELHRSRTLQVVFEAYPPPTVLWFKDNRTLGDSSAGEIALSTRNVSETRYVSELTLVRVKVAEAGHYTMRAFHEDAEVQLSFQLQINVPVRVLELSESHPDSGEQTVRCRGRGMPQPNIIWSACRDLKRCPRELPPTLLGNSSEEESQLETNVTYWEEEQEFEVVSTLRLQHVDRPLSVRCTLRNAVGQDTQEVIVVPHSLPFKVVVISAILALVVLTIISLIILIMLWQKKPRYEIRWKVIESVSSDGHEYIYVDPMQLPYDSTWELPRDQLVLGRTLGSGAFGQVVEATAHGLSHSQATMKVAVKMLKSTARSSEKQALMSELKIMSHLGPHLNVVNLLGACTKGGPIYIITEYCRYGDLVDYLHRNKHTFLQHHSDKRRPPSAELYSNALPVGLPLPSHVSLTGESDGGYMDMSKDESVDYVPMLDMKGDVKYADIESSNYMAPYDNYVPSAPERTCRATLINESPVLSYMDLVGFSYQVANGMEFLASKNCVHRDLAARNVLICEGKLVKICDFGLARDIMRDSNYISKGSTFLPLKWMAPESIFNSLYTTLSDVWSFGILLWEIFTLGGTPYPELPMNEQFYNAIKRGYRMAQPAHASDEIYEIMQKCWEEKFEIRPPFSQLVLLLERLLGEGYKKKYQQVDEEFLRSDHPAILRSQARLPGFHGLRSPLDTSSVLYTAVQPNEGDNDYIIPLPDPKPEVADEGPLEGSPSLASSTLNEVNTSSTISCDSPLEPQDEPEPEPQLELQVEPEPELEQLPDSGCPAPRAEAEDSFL

Structure (SMILES) | Biochem EGFR %Inhibition (EGFR) [%] | Met Kinase % Inhibition (MET) [%] | PDGF Kinase %Inhibition (PDGF-R) [%]
COc1cccc(O)c1C=C1C(=O)Nc2c(Br)cc(Br)cc21 [10717/A10] | 8.1 | 71.6 | 
CNS(=O)(=O)c1ccc2c(c1)C(=Cc1c(C)[nH]c(C(=O)OC)c1C(=O)OC)C(=O)N2 [10718/D07] | 5.6 | 26.1 | 
CNS(=O)(=O)c1ccc2c(c1)C(=Cc1ccc(Cl)c([N+](=O)[O-])c1)C(=O)N2 [10718/D08] | 3.0 | 2.3 | 
CNS(=O)(=O)c1ccc2c(c1)C(=Cc1ccc(O)c(C)c1O)C(=O)N2 [10718/D09] | 6.0 | 9.9 | 
CNS(=O)(=O)c1ccc2c(c1)C(=Cc1ccco1)C(=O)N2 [10718/D10] | 12.3 | 55.3 | 
CNS(=O)(=O)c1ccc2c(c1)C(=Cc1ccc([N+](=O)[O-])o1)C(=O)N2 [10718/D11] | 5.4 | 11.3 | 
CCOC(=O)c1c(C)[nH]c(C=C2C(=O)Nc3ccc(S(=O)(=O)Nc4ccc(C(F)(F)F)cc4)cc32)c1C [10718/E02] | 1.0 | 46.3 | 
COc1cc(Br)c(O)c(C=C2C(=O)Nc3ccc(S(=O)(=O)Nc4ccc(C(F)(F)F)cc4)cc32)c1 [10718/E03] | 50.4 | 95.3 | 
CNS(=O)(=O)c1ccc2c(c1)C(=Cc1cc(I)c(OC)c(C(C)(C)C)c1)C(=O)N2 [10732/D11] | -13.4 | 48.6 | 18.9
O=C1Nc2ccc(S(=O)(=O)Nc3ccc(C(F)(F)F)cc3)cc2C1=CC(c1cccs1)C(F)(F)F (stereo not shown) [10732/E02] | 0.8 | 33.3 | 4.8
COc1c(C(C)C)cc(C=C2C(=O)Nc3ccc(S(=O)(=O)Nc4ccc(C(F)(F)F)cc4)cc32)cc1C(C)C [10732/E03] | -1.6 | 3.9 | 48.7
CC(C)c1cc(C=C2C(=O)Nc3ccc(S(=O)(=O)Nc4ccc(C(F)(F)F)cc4)cc32)cc(C(C)C)c1Oc1ccccc1 [10732/E04] | -10.6 | 8.2 | 29.5
COc1ccc(C=C2C(=O)Nc3ccc(S(=O)(=O)Nc4ccc(C(F)(F)F)cc4)cc32)cc1C(C)(C)C [10732/E05] | -17.0 | 2.2 | 41.1
CC(C)(C)c1cc(C=C2C(=O)Nc3ccc(S(=O)(=O)Nc4ccc(C(F)(F)F)cc4)cc32)ccc1OCc1ccccc1 [10732/E06] | -11.0 | -2.1 | 16.9
COc1c(Br)cc(C=C2C(=O)Nc3ccc(S(=O)(=O)Nc4ccc(C(F)(F)F)cc4)cc32)cc1C(C)(C)C [10732/E07] | -8.5 | 15.2 | 42.2
CC(C)(C)c1cc(C=C2C(=O)Nc3ccc(S(=O)(=O)Nc4ccc(C(F)(F)F)cc4)cc32)cc(Br)c1OCc1ccccc1 [10732/E08] | -21.7 | 29.4 | 32.6

Structure (SMILES) | Biochem EGFR %Inhibition (EGFR) [%] | Met Kinase % Inhibition (MET) [%] | PDGF Kinase %Inhibition (PDGF-R) [%]
COc1c(Cl)cc(C=C2C(=O)Nc3ccc(S(=O)(=O)Nc4ccc(C(F)(F)F)cc4)cc32)cc1C(C)(C)C [10732/E09] | -7.2 | 18.1 | 46.7
CC(C)(C)c1cc(C=C2C(=O)Nc3ccc(S(=O)(=O)Nc4ccc(C(F)(F)F)cc4)cc32)cc(Cl)c1OCc1ccccc1 [10732/E10] | -3.3 | 1.6 | 35.6
COc1c(I)cc(C=C2C(=O)Nc3ccc(S(=O)(=O)Nc4ccc(C(F)(F)F)cc4)cc32)cc1C(C)(C)C [10732/E11] | -32.2 | 41.4 | 47.7
O=C1Nc2ccc(S(=O)(=O)N3CCOCC3)cc2C1=CC(c1cccs1)C(F)(F)F (stereo not shown) [10732/F02] | 23.1 | 55.6 | -9.4
COc1c(C(C)C)cc(C=C2C(=O)Nc3ccc(S(=O)(=O)N4CCOCC4)cc32)cc1C(C)C [10732/F03] | 54.1 | 68.6 | 51.8
CC(C)c1cc(C=C2C(=O)Nc3ccc(S(=O)(=O)N4CCOCC4)cc32)cc(C(C)C)c1Oc1ccccc1 [10732/F04] | -0.1 | 57.2 | 23.5
COc1ccc(C=C2C(=O)Nc3ccc(S(=O)(=O)N4CCOCC4)cc32)cc1C(C)(C)C [10732/F05] | -30.7 | 58.9 | 12.8
CC(C)(C)c1cc(C=C2C(=O)Nc3ccc(S(=O)(=O)N4CCOCC4)cc32)ccc1OCc1ccccc1 [10732/F06] | -8.0 | 45.7 | 0.2
COc1c(Br)cc(C=C2C(=O)Nc3ccc(S(=O)(=O)N4CCOCC4)cc32)cc1C(C)(C)C [10732/F07] | -12.5 | 65.5 | 38.6
CC(C)(C)c1cc(C=C2C(=O)Nc3ccc(S(=O)(=O)N4CCOCC4)cc32)cc(Br)c1OCc1ccccc1 [10732/F08] | -11.9 | 76.6 | 14.9
COc1c(Cl)cc(C=C2C(=O)Nc3ccc(S(=O)(=O)N4CCOCC4)cc32)cc1C(C)(C)C [10732/F09] | -13.4 | 79.7 | 25.5
CC(C)(C)c1cc(C=C2C(=O)Nc3ccc(S(=O)(=O)N4CCOCC4)cc32)cc(Cl)c1OCc1ccccc1 [10732/F10] | 0.8 | 65.1 | 15.9
COc1c(I)cc(C=C2C(=O)Nc3ccc(S(=O)(=O)N4CCOCC4)cc32)cc1C(C)(C)C [10732/F11] | -21.5 | 75.2 | 77.5
O=C1Nc2ccc(CCCl)cc2C1=CC(c1cccs1)C(F)(F)F (stereo not shown) [10732/G02] | -0.7 | 39.5 | 10.3
COc1c(C(C)C)cc(C=C2C(=O)Nc3ccc(CCCl)cc32)cc1C(C)C [10732/G03] | -20.0 | 38.1 | 36.1
